Laboratory results as given in patent US12544356B2, “Combination of a chromene compound and a second active agent” (EUCLISES PHARMACEUTICALS, INC., priority 2016, dated 2026).

Columns and labels:
[1] = Plasma concentration of Compound A01 and erlotinib (Example 1); type: in vivo, CB17SCID male mice; conditions: for concentration at 2 h / concentration at 6 h: male, CB17SCID, mouse, plasma; for concentration at 2 h: 2 hours post dosing; for concentration at 6 h: 6 hours post dosing
Procedure: (§1) 48 CB17SCID male mice were implanted with 2.5×10^6 HT29 cells. Growth of the tumor was calculated for each animal using a caliper and the equation: V=π×ab^2/6.
(§2) Mouse weight and tumor volume measurements were taken on days 0, 3, 6, 9, 12, 15, 18, 21, and 22 following randomization.

[2] = Intratumoral concentration of Compound A01 and erlotinib (Example 1); type: in vivo, CB17SCID male mice; conditions: for Intratumoral concentration of Compound A01 (mean ± SD): HT-29 tumor, day 24
Procedure: as §1, §2

[3] = tested on: intratumoral immune cells (CT26 tumors); experiment: Intratumoral immune response by flow cytometry (Example 4); type: in vivo, Female Envigo BALB/c (BALB/cAnNHsd) mice
Procedure: (§3) CT26 murine colon carcinoma cells were prepared as in Example 2. Female Envigo BALB/c (BALB/cAnNHsd) were inoculated with 5×10^5 CT26 cells suspended in PBS (200 μL) subcutaneously high in the axilla (just under the fore limb). […] The antibodies were administered via i.p. injection on days 3, 6, 9, 12, and 16 following inoculation. Compound A01 was given per oral daily. The mice were euthanized two hours following final dose on Day 16 and samples were prepared for testing.
Following euthanization, tumors were removed and processed to recover live cells. Red blood cells were removed. The cells were stained for surface markers and, where applicable, permeabilized for intracellular staining. The cells were washed and suspended in flow cytometry staining buffer and analyzed via flow cytometry.
The treatment had minimal effect on the relative number of Tregs (CD25^+Foxp3^+) and MDSCs (CD11b^+Ly6G^+) (as a percentage of total CD45^+ cells). […] FIG. 3 correlates CD8^+ cell percentages to tumor regression.

[4] = tested on: PGE2; experiment: Intratumoral concentration of PGE2 in HT-29 tumors (Example 1); type: in vivo, CB17SCID male mice; conditions: HT-29 tumor, day 24
Procedure: as §1, §2

[5] = tested on: CT26 xenograft murine colon carcinoma model; experiment: CT26 tumor rejection, COX-2 inhibitor with anti-PD1 antibody (Example 2); type: in vivo, female BALB/c mice; conditions: up to 50 days following inoculation, COX-2 inhibitor oral daily from day 0, anti-PD-1 200 μg/mouse i.p.
Procedure: CT26.WT cells were cultured under standard conditions. They were harvested with trypsin and washed with PBS. 10^5 cells were injected into the right flank of 6 week old female BALB/c mice in total volume of 100 μL. Tumor size was quantified as the mean of the longest diameter and its perpendicular.

[6] = tested on: CT26 murine colon carcinoma cells; experiment: CT26 tumor growth, Compound A01 with anti-mPD-L1 (Example 4); type: in vivo, Female Envigo BALB/c (BALB/cAnNHsd) mice; conditions: for tumor growth (tumor volume): all doses 10 mg/kg, A01 oral daily, antibodies i.p.
Procedure: as §3

[7] = tested on: HT-29 xenograft colon carcinoma model; experiment: HT-29 xenograft tumor volume, Compound A01 vs celecoxib (Example 5); type: in vivo, CB17SCID mice
Procedure: (§4) HT-29 cells were prepared and implanted by standard methods using the same procedure as Example 1.
(§5) 42 CB17SCID mice were implanted with 2.5×10^6 HT-29 cells.
(§6) Mouse weight and tumor volume measurements were taken on days 0, 3, 6, 9, 12, 15, 18, 21, and 22 following randomization. After 22 days dosing, the blood from each animal was collected at 2 hours and 6 hours post dose.

[8] = tested on: prostaglandin E2 (PGE2); experiment: CT26 tumoral PGE-2 (Example 6); type: in vivo, Female Harlan Balb/c mice (BALB/cAnNHsd)
Procedure: CT26 murine colon carcinoma cells were prepared as in Example 2. Female Harlan Balb/c mice (BALB/cAnNHsd) were inoculated with 5×10^5 CT26 cells suspended in PBS (200 μL) subcutaneously high in the axilla (just under the fore limb). All mice were sorted into study groups based on caliper measurement estimation of tumor burden on Day 8 when the mean tumor burden for all animals was approximately 79 mm^3 (range of group means, 75-83 mm^3).

[9] = tested on: PGE-2; experiment: Tumoral PGE-2 in HT-29 tumors (Example 5); type: in vivo, CB17SCID mice; conditions: HT-29 tumor, day 24
Procedure: as §4, §5, §6

[10] = of total CD8+CD4− T cells, Day 16, doses 10 mg/kg
[11] = percentage of total CD45+ cells, Day 16, doses 10 mg/kg

For [2H]C([2H])([2H])c1cc(Br)cc2c1O[C@H](C(F)(F)F)C(C(=O)O)=C2 [Compound A01, (S)-6-bromo-8-trideuteromethyl-2-(trifluoromethyl)-2H-chromene-3-carboxylic acid], the “effect of oral dosing of erlotinib on plasma concentration of Compound A01” value ([1]; 2 and 6 hours post dosing) was “influenced”, the concentration at 2 h ([1]; A01 1 mg/kg oral) was 3610 ± 1350 ng/mL and the concentration at 2 h ([1]; A01 10 mg/kg oral) was 28400 ± 6020 ng/mL. For the same molecule, the concentration at 6 h ([1]; A01 1 mg/kg oral) was 2250 ± 529 ng/mL, the concentration at 6 h ([1]; A01 10 mg/kg oral) was 19100 ± 5170 ng/mL and the “Intratumoral concentration of Compound A01 (mean ± SD)” value ([2]; A01 1 mg/kg) was 1478.5 ± 652.1 µg/g. For the same molecule, the “Intratumoral concentration of Compound A01 (mean ± SD)” value ([2]; A01 10 mg/kg) was 9720 ± 2758.7 µg/g, the “increase in intratumor level of Compound A01 on addition of erlotinib” value ([2]; with erlotinib vs Compound A01 in the absence of erlotinib) was 1.5 fold and the “Ki67+ CD8+ T cells” value [3, 10] was 13.75%. For the same molecule, the “PD-1+ CD8+ T cells” value [3, 10] was 84.36%, the “CD4+ CD8− intratumoral T cells” value [3, 11] was 1.01% and the “CD8+ CD4− intratumoral T cells” value [3, 11] was 6.32%. For the same molecule, the “MDSCs (CD11b+Ly6G+)” value [3, 11] was 12.09%, the “Tregs (CD25+Foxp3+)” value [3, 11] was 2.29% and the “level of Ki67+CD8+ T cells (of total CD8+CD4− T cells), in words” value ([3]; summary of Table 12) was “reduced”. The “level of PD-1+CD8+ T cells (of total CD8+CD4− T cells), in words” value ([3]; summary of Table 12) was “reduced”, the “percentage of intratumoral CD4+CD8− T cells (of total CD45+ cells), in words” value ([3]; summary of Table 12) was “increased” and the “percentage of intratumoral CD8+CD4− T cells (of total CD45+ cells), in words” value ([3]; summary of Table 12) was “increased”. For the same molecule, the “Intratumoral concentration of PGE2 (mean ± SD)” value ([4]; A01 1 mg/kg) was 14.01 ± 30.3 µg/g, the “Intratumoral concentration of PGE2 (mean ± SD)” value ([4]; A01 10 mg/kg) was 0 µg/g and the “tumor rejection / tumor growth” value [5] was “did not prevent tumor growth”. The “tumor growth compared to vehicle and isotype controls” value ([6]; CT26, doses 10 mg/kg) was “slowed”, the “tumor growth (tumor volume)” value ([6]; Day 3) was 0 mm^3 and the “tumor growth (tumor volume)” value ([6]; Day 4) was 0 mm^3. For the same molecule, the “tumor growth (tumor volume)” value ([6]; Day 6) was 8 mm^3, the “tumor growth (tumor volume)” value ([6]; Day 9) was 97 mm^3 and the “tumor growth (tumor volume)” value ([6]; Day 11) was 242 mm^3. For the same molecule, the “tumor growth (tumor volume)” value ([6]; Day 13) was 442 mm^3, the “tumor growth (tumor volume)” value ([6]; Day 16) was 759 mm^3 and the “Tumor Volume” value ([7]; Day 0, 0.1 mg/kg oral daily) was 65.8 mm^3. For the same molecule, the “Tumor Volume” value ([7]; Day 0, 0.3 mg/kg oral daily) was 70.9 mm^3, the “Tumor Volume” value ([7]; Day 0, 1 mg/kg oral daily) was 68.5 mm^3 and the “Tumor Volume” value ([7]; Day 0, 3 mg/kg oral daily) was 68.4 mm^3. For the same molecule, the “Tumor Volume” value ([7]; Day 0, 10 mg/kg oral daily) was 69.0 mm^3, the “Tumor Volume” value ([7]; Day 3, 0.1 mg/kg oral daily) was 88.5 mm^3 and the “Tumor Volume” value ([7]; Day 3, 0.3 mg/kg oral daily) was 83.8 mm^3. For the same molecule, the “Tumor Volume” value ([7]; Day 3, 1 mg/kg oral daily) was 85.2 mm^3, the “Tumor Volume” value ([7]; Day 3, 3 mg/kg oral daily) was 80.3 mm^3 and the “Tumor Volume” value ([7]; Day 3, 10 mg/kg oral daily) was 83.9 mm^3. For the same molecule, the “Tumor Volume” value ([7]; Day 6, 0.1 mg/kg oral daily) was 165.0 mm^3, the “Tumor Volume” value ([7]; Day 6, 0.3 mg/kg oral daily) was 132.9 mm^3 and the “Tumor Volume” value ([7]; Day 6, 1 mg/kg oral daily) was 152.8 mm^3. For the same molecule, the “Tumor Volume” value ([7]; Day 6, 3 mg/kg oral daily) was 121.9 mm^3, the “Tumor Volume” value ([7]; Day 6, 10 mg/kg oral daily) was 107.7 mm^3 and the “Tumor Volume” value ([7]; Day 9, 0.1 mg/kg oral daily) was 283.1 mm^3. For the same molecule, the “Tumor Volume” value ([7]; Day 9, 0.3 mg/kg oral daily) was 231.5 mm^3, the “Tumor Volume” value ([7]; Day 9, 1 mg/kg oral daily) was 239.8 mm^3 and the “Tumor Volume” value ([7]; Day 9, 3 mg/kg oral daily) was 190.1 mm^3. The “Tumor Volume” value ([7]; Day 9, 10 mg/kg oral daily) was 176.0 mm^3, the “Tumor Volume” value ([7]; Day 12, 0.1 mg/kg oral daily) was 360.3 mm^3 and the “Tumor Volume” value ([7]; Day 12, 0.3 mg/kg oral daily) was 298.2 mm^3. The “Tumor Volume” value ([7]; Day 12, 1 mg/kg oral daily) was 311.1 mm^3, the “Tumor Volume” value ([7]; Day 12, 3 mg/kg oral daily) was 279.5 mm^3 and the “Tumor Volume” value ([7]; Day 12, 10 mg/kg oral daily) was 257.7 mm^3. For the same molecule, the “Tumor Volume” value ([7]; Day 15, 0.1 mg/kg oral daily) was 416.8 mm^3, the “Tumor Volume” value ([7]; Day 15, 0.3 mg/kg oral daily) was 350.7 mm^3 and the “Tumor Volume” value ([7]; Day 15, 1 mg/kg oral daily) was 364.8 mm^3. For the same molecule, the “Tumor Volume” value ([7]; Day 15, 3 mg/kg oral daily) was 329.1 mm^3, the “Tumor Volume” value ([7]; Day 15, 10 mg/kg oral daily) was 332.0 mm^3 and the “Tumor Volume” value ([7]; Day 18, 0.1 mg/kg oral daily) was 640.9 mm^3. For the same molecule, the “Tumor Volume” value ([7]; Day 18, 0.3 mg/kg oral daily) was 530.8 mm^3, the “Tumor Volume” value ([7]; Day 18, 1 mg/kg oral daily) was 532.6 mm^3 and the “Tumor Volume” value ([7]; Day 18, 3 mg/kg oral daily) was 445.1 mm^3. For the same molecule, the “Tumor Volume” value ([7]; Day 18, 10 mg/kg oral daily) was 357.3 mm^3, the “Tumor Volume” value ([7]; Day 21, 0.1 mg/kg oral daily) was 900.4 mm^3 and the “Tumor Volume” value ([7]; Day 21, 0.3 mg/kg oral daily) was 723.5 mm^3. The “Tumor Volume” value ([7]; Day 21, 1 mg/kg oral daily) was 730.9 mm^3, the “Tumor Volume” value ([7]; Day 21, 3 mg/kg oral daily) was 622.8 mm^3 and the “Tumor Volume” value ([7]; Day 21, 10 mg/kg oral daily) was 453.6 mm^3. For the same molecule, the “Tumor Volume” value ([7]; Day 22, 0.1 mg/kg oral daily) was 987.7 mm^3, the “Tumor Volume” value ([7]; Day 22, 0.3 mg/kg oral daily) was 753.5 mm^3 and the “Tumor Volume” value ([7]; Day 22, 1 mg/kg oral daily) was 772.1 mm^3. The “Tumor Volume” value ([7]; Day 22, 3 mg/kg oral daily) was 699.4 mm^3, the “Tumor Volume” value ([7]; Day 22, 10 mg/kg oral daily) was 561.8 mm^3 and the “Mean PGE-2 Concentration (CT26 tumoral)” value ([8]; 0.3 mg/kg (Group 6)) was 670 ng/g. For the same molecule, the “Mean PGE-2 Concentration (CT26 tumoral)” value ([8]; 1 mg/kg (Group 5)) was 278 ng/g, the “Mean PGE-2 Concentration (CT26 tumoral)” value ([8]; 30 mg/kg (Group 2)) was 150 ng/g and the “Mean PGE-2 (tumoral)” value ([9]; 0.1 mg/kg) was 203.9 ± 157.9 ng/g. For the same molecule, the “Mean PGE-2 (tumoral)” value ([9]; 0.3 mg/kg) was 237.3 ± 119.8 ng/g, the “Mean PGE-2 (tumoral)” value ([9]; 1 mg/kg) was 90.7 ± 105.1 ng/g and the “Mean PGE-2 (tumoral)” value ([9]; 3 mg/kg) was 94.3 ± 78.4 ng/g. The “Mean PGE-2 (tumoral)” value ([9]; 10 mg/kg) was 45.5 ± 73.4 ng/g.
